{"source": "patent US20220204509A1", "about": "“PYRIMIDO FIVE-MEMBERED HETEROCYCLIC COMPOUND AND USE THEREOF AS MUTANT IDH2 INHIBITOR” (EPITAS BIOSCIENCES (SHANGHAI) CO., LTD., priority 2019, published 2022)", "key": {"[1]": {"target": "T1, IDH2/R140Q (Homo sapiens, UniProt P48735, R140Q)", "T1 sequence (P48735 40-452 R140Q)": "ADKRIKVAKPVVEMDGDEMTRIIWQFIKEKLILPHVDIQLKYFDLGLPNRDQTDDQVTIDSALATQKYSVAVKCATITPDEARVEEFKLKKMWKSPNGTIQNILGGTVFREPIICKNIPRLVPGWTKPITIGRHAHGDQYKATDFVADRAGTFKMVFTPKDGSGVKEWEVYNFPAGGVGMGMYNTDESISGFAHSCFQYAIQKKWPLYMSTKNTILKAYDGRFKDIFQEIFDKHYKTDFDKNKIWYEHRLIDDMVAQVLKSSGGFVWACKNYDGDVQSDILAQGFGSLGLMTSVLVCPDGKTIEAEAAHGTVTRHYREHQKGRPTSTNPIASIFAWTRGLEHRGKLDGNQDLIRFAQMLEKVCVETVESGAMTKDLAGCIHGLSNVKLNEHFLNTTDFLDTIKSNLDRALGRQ", "test": "Determination of the inhibitory activity of the compounds on IDH2/R140Q (NADPH reduction, resazurin/lipoamide dehydrogenase detection)", "format": "biochemical", "parameters": "purchased Abcam ab198153", "details": "IDH2/R140Q inhibitory activity; pre-incubated at 25° C. for 16 hours; read-out: IC50", "procedure": "In this example, the inhibitory activity of a compound on IDH2/R140Q was determined by measuring the reduction of the cofactor NADPH. The compound was incubated with IDH2/R140Q and NADPH, and then the reaction was initiated by adding α-KG. After a certain time of reaction under linear conditions, lipoamide dehydrogenase and the corresponding substrate resazurin were added for detection. Lipoamide dehydrogenase terminated the IDH2/R140Q reaction bγ subtracting the available cofactor NADPH. It oxidized NADPH to NADP, and reduced resazurin to highly fluorescent resorufin. The production of resorufin was detected to quantify the amount of cofactor NADPH remaining after a specific reaction time.\nThen 25 μL of a stop mixed solution (lipoamide dehydrogenase 36 μg/mL, resazurin 30 μM) prepared with the above reaction buffer was added to convert resazurin to resorufin to measure the remaining NADPH. After 10 minutes of incubation at 25° C., the fluorescence value was measured by Tecan […] […] The enzyme activity was measured at 10 concentrations for each compound, and multiple background holes without enzyme and full enzyme activity holes without compound were set up in the reaction. The concentration of dimethyl sulfoxide in the system was less than or equal to 2%. […] The multi-well plate in this example was purchased from Thermo Fisher Scientific, NADPH, α-KG, lipoamide dehydrogenase, and resazurin were purchased from Shenggong Bioengineering Co., Ltd., and IDH2/R140Q was purchased from Abcam (ab198153)."}, "[2]": {"target": "T1, IDH2/R140Q", "test": "Inhibition of mutant IDH2 activity at the cell level (extracellular 2-HG, U87MG overexpressing IDH2/R140Q)", "format": "cell-based", "details": "U87MG overexpressing IDH2/R140Q; 2-HG in medium after 24 hours of culturing with compound; read-out: IC50", "procedure": "2-hydroxyglutarate dehydrogenase (2HGDH) can reduce NAD+ to NADH in the presence of 2-HG. The latter can be quantitatively detected by diaphorase and its substrate Resazurin.\nThe glioma cells U87MG overexpressing IDH2/R140Q mutation were cultured in 1% sodium pyruvate high-sugar MEM, 10% FBS, and placed in a CO2 incubator (37° C., 5% CO2, 95% air) for cultivation.\nThe cells were digested with trypsin and seeded in a 96-well plate at a density of 1×10^4 with a medium of 200 μL and cultured in a 37° C. incubator overnight. The next day, the test compound was added to a final concentration of 0.1% for DMSO. […] The protein and other components in the medium that may interfere with the results were filtered, and the follow-up method was used to detect the content of 2-HG. 50 uL CellTiter-Glo (purchased from Promega) was added to the 96-well plate with the remaining 100 μL of medium to detect cell survival;\nExtracellular 2-HG detecting system:\n(1) 50 μL reaction system: reaction buffer (50 mM Tris pH7.5, 100 mM NaCl, 20 mM MgCl2, 0.05% BSA), in which the final concentration of NAD+ was 40 μM, the final concentration of 2HGDH was 20 nM, and the test sample was added to 5 μL of medium; the reaction solution was mixed and centrifuged, and the reaction was carried out for 1 hour at 25° C. in the dark;\nPreparation of 2-HG standard curve: a 2-HG stock solution was diluted to 20 μM with reaction buffer, and a 2-fold gradient diluting was performed for a total of 6 points. Afterwards, the above-mentioned 2-HG was measured according to the extracellular 2-HG detecting system, and a standard curve was calculated and drawn.\nCalculation of extracellular 2-HG content:\nThe fluorescence value obtained in the extracellular 2-HG detecting system was calculated using the 2-HG standard curve to calculate the content of 2-HG in the medium, and DMSO was used as a negative control to calculate the compound's inhibition against IDH2/R140Q mutation producing 2-HG activity."}, "[3]": {"target": "T2, IDH2/WT (Homo sapiens, UniProt P48735)", "T2 construct": "made in house; host or cells: E. coli", "T2 sequence (P48735 40-452)": "T1 sequence (P48735 40-452 R140Q) with Q101R", "test": "Determination of the selectivity of compounds to wild-type IDH2 (IDH2/WT)", "format": "biochemical", "details": "Inhibitory activity on IDH2/WT; pre-incubated at 25° C. for 16 hours", "procedure": "The compound was incubated with IDH2/WT and NADP, and then the reaction was initiated by adding isocitrate. After a certain time of reaction under linear conditions, lipoamide dehydrogenase and resazurin were added to detect the amount of fluorescent substances. In this experiment, NADP was reduced to NADPH. The latter reduced resazurin to highly fluorescent resorufin under the action of lipoamide dehydrogenase. The production of resorufin was detected to quantify the amount of cofactor NADPH generated after a specific reaction time, so as to calculate the compound's inhibitory effect on IDH2/WT.\nSpecifically, in a 96-well plate, in a total reaction volume of 50 μL, a mixture of 0.6 nM IDH2/WT, serially diluted inhibitors, and 50 μM NADP in a reaction buffer containing Tris-HCl 20 mM (pH 7.5), 150 mM NaCl, 10 mM MgCl2, 10% Glycerol, 0.03% BSA, and 2.5 mM β-mercaptoethanol, was pre-incubated at 25° C. for 16 hours. Isocitrate was added to 50 μM and the reaction was carried out at 25° C. for 30 minutes. Then 25 μL of a mixed solution (lipoamide dehydrogenase 36 μg/mL, resazurin 30 μM) prepared with the above reaction buffer was added to convert resazurin to resorufin to measure the NADPH produced. After 10 minutes of incubation at 25° C., the fluorescence value was measured by Tecan INFINITE F FLEX under Ex544/Em590. The enzyme activity was measured at 10 concentrations for each compound, and multiple background holes without enzyme and full enzyme activity holes without compound were set up in the reaction. The concentration of dimethyl sulfoxide in the system was less than or equal to 2%. The value of IC50 was obtained by the formula: Y=100/(1+10^((Log IC50−X)*HillSlope)) using XLFit5 software (IDBS Software). In the method, the multi-well plate was purchased from Thermo Fisher Scientific, NADP, α-KG, lipoamide dehydrogenase, and resazurin were purchased from Shenggong Bioengineering Co., Ltd., and IDH2/WT was obtained by purification after E. coli overexpression."}}, "note": "Residue numbers refer to the chain shown, from its start."}
{"compound": "Cc1cc2c(NC(C)C)nc(-c3ccccc3F)nc2[nH]1", "note": "[Compound 25, 2-(2-fluorophenyl)-N-isopropyl-6-methyl-7H-pyrrolo[2,3-d]pyrimidin-4-amine]", "values": [{"measurement": "IC50", "setting": "[1]", "value": "0.1 to 1", "unit": "µM"}, {"measurement": "IC50", "setting": "[2]", "value": "0.1 to 1", "unit": "µM"}, {"measurement": "IC50", "setting": "[3]", "value": "> 5", "unit": "µM"}]}
